Drawing on ChEMBL document CHEMBL2073844, “Pharmacological characterization of the murine and human orthologs of multidrug-resistance protein in transfected human embryonic kidney cells” (Mol Pharmacol, 1997), this text covers Activity for 5 compounds.

Type in all cases: functional, cell-based
The target in data set [1] is T1, Multidrug resistance-associated protein 1 (Mus musculus, UniProt O35379). The data set is described as follows: TP_TRANSPORTER: drug resistance in Mrp1-expressing HEK293 cells. As to conditions: human.
T1 sequence (O35379 whole entry): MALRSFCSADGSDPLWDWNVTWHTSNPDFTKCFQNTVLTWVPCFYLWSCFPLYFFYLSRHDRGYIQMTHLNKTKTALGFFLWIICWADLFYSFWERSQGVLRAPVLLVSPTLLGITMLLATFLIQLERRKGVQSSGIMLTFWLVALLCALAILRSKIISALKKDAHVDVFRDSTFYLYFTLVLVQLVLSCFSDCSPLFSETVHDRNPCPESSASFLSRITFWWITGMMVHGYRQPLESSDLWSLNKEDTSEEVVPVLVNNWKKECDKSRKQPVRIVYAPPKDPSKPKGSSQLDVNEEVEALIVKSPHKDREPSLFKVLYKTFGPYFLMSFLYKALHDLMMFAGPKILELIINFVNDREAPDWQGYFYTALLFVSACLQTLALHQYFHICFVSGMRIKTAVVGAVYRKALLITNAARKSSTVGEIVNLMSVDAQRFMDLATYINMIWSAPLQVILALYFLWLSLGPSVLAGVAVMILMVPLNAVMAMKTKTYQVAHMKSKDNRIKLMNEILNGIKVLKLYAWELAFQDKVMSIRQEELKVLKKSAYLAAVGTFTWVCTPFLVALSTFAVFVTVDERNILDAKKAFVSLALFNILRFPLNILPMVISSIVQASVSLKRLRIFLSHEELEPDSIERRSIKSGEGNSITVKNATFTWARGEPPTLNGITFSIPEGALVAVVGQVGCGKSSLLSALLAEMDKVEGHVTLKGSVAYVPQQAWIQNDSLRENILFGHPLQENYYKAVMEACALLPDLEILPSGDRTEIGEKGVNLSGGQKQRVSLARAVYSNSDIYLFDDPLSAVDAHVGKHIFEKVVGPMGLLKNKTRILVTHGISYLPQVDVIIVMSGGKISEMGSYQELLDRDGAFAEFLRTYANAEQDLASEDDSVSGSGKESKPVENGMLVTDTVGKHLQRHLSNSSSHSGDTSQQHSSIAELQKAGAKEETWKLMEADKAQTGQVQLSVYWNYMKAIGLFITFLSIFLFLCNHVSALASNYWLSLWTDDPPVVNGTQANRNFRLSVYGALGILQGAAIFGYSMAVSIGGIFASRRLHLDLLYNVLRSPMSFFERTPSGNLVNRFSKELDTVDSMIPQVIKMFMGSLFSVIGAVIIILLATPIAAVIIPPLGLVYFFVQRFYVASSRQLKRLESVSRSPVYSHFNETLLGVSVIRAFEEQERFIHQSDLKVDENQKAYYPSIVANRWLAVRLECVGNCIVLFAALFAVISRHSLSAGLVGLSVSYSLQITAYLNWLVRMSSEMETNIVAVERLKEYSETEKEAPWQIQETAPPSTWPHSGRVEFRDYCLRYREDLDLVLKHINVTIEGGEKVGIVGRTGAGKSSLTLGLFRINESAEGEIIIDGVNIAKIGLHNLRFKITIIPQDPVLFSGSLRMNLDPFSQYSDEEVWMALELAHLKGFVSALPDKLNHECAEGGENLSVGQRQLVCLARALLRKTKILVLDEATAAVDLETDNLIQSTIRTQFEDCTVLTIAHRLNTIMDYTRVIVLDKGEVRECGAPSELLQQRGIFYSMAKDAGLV
Data set [2] addresses T2, Multidrug resistance-associated protein 1 (Homo sapiens, UniProt P33527). Put plainly: TP_TRANSPORTER: drug resistance in MRP1-expressing HEK293 cells.
The target of data set [3] is T2, Multidrug resistance-associated protein 1. Put plainly: TP_TRANSPORTER: efflux in MRP1-expressing HEK293 cells.
The target of data set [4] is T1, Multidrug resistance-associated protein 1. The data set is described as follows: TP_TRANSPORTER: efflux in Mrp1-expressing HEK293 cells. As to conditions: human.

“Also recorded” adds a separate entry of the source.

T2 sequence (P33527 whole entry): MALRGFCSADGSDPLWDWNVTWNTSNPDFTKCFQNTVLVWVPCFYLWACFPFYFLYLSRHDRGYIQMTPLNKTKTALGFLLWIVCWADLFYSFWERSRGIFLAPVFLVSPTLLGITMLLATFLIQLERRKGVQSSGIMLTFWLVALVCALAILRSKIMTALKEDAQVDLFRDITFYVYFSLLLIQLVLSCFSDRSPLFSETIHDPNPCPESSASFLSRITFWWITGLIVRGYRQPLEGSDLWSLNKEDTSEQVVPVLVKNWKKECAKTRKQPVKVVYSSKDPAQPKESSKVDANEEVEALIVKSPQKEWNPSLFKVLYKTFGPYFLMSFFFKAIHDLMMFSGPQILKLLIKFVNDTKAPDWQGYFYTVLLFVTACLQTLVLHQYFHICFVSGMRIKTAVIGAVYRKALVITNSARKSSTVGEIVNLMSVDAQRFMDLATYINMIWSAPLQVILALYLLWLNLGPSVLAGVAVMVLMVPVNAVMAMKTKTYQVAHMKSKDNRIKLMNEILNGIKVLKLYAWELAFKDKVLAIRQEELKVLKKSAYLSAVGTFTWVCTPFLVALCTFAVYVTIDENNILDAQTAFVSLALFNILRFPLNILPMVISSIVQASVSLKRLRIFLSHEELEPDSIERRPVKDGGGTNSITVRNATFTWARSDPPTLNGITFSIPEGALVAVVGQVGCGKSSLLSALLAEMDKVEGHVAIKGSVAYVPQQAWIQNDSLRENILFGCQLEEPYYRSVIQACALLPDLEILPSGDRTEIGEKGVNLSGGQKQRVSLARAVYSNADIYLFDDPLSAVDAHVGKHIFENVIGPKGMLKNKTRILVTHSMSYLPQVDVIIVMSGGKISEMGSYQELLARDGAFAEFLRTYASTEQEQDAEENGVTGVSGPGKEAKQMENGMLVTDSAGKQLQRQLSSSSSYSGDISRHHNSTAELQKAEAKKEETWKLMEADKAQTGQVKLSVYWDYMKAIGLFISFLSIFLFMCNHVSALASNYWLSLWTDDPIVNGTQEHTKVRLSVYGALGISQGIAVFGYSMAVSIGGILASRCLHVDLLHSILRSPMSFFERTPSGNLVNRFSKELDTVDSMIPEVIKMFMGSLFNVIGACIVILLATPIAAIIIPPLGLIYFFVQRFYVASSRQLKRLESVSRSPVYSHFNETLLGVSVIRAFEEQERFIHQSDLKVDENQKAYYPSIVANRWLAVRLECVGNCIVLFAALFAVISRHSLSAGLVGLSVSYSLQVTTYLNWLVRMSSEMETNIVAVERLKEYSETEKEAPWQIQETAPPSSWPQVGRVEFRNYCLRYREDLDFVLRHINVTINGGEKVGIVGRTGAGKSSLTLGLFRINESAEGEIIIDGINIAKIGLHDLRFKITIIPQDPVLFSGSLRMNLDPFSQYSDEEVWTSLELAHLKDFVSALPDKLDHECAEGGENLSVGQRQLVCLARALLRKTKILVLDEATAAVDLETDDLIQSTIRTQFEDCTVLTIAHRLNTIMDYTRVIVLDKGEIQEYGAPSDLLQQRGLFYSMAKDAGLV

`COc1cc2c(c(OC)c1OC)-c1ccc(OC)c(=O)cc1[C@@H](NC(C)=O)CC2` [COLCHICINE]: the Activity entry in data set [1] is “substrate [+]; also recorded: is not a substrate [-]”. Turning to `COc1cccc2c1C(=O)c1c(O)c3c(c(O)c1C2=O)C[C@@](O)(C(=O)CO)C[C@@H]3O[C@H]1C[C@H](N)[C@H](O)[C@H](C)O1` [DOXORUBICIN], the Activity result is “substrate [+]” in data set [2] and “is not a substrate [-]” in data set [1]. Turning to `COc1cccc2c1C(=O)c1c(O)c3c(c(O)c1C2=O)C[C@@](O)(C(=O)CO)C[C@@H]3O[C@H]1C[C@H](N)[C@@H](O)[C@H](C)O1` [EPIRUBICIN], the Activity entry in data set [2] is “substrate [+]”; in data set [1], “is not a substrate [-]”. For `COc1cc([C@@H]2c3cc4c(cc3[C@@H](O[C@@H]3O[C@@H]5CO[C@@H](C)O[C@H]5[C@H](O)[C@H]3O)[C@H]3COC(=O)[C@H]23)OCO4)cc(OC)c1O` [ETOPOSIDE], the Activity result in data set [3] and in data set [4] was “substrate [+]” throughout. On to `CC[C@]1(O)C[C@H]2CN(CCc3c([nH]c4ccccc34)[C@@](C(=O)OC)(c3cc4c(cc3OC)N(C=O)[C@H]3[C@@](O)(C(=O)OC)[C@H](OC(C)=O)[C@]5(CC)C=CCN6CC[C@]43[C@@H]65)C2)C1` [VINCRISTINE], for which the Activity result in data set [4] was “substrate [+]”.
